Columns and labels:
[1] = system: greenhouse-grown cabbage leaves; assay: Direct droplet bioassay on cabbage leaves (Examples 5 and 7); assay type: in vivo; settings: applied in one microliter of methanol; for EC50 (amount producing 50% of maximum effect): cabbage leaves; for relative toxicity to cabbage leaves (ranking by EC50): individual oils
Method: Various plant essential oils were tested for toxicity (herbicidal action) against greenhouse-grown cabbage leaves. Individual oils were ranked for relative toxicity using the direct droplet bioassay on the cabbage leaves.
Various plant essential oils were tested for synergistic effects on the toxicity (herbicidal action) against greenhouse-grown cabbage leaves. Individual oils were ranked for relative toxicity using the direct droplet bioassay on the cabbage leaves, and compared to mixtures at different ratios. […]

dandelion = assay: Direct droplet bioassay on dandelion (Example 6); assay type: in vivo; settings: individual oils, applied in one microliter of methanol
Method: Various plant essential oils were tested for toxicity (herbicidal action) against dandelion. Individual oils were ranked for relative toxicity using the direct droplet bioassay on the dandelion. EC50 values (amount producing 50% of maximum effect) were recorded in micrograms (all applied in one microliter of methanol) and plotted on a graph for comparison.

For C=CCc1ccc(O)c(OC)c1 [Eugenol], the “EC50 (amount producing 50% of maximum effect)” value [1] was 46.1 micrograms.
CC12CCC(CC1)C(C)(C)O2 [cineole, Cineole] was tested, and the “relative toxicity to dandelion (ranking by EC50)” value (“relative toxicity to dandelion” for short) (dandelion) was “most toxic”.
With Cc1ccc(C(C)C)c(O)c1 [white thymol, White Thymol] the “relative toxicity to dandelion” value (dandelion) was “most toxic” and the “relative toxicity to cabbage leaves (ranking by EC50)” value (“relative toxicity to cabbage leaves” for short) [1] was “most toxic”.
In the case of COC(=O)c1ccccc1O [methyl salicylate, Methyl Salicylate], the “relative toxicity to dandelion” value (dandelion) is reported as “most toxic” and the “relative toxicity to cabbage leaves” value [1] is reported as “most toxic”.
In the case of O=C/C=C/c1ccccc1 [cinnamic aldehyde, Cinnamic Aldehyde], the “relative toxicity to dandelion” value (dandelion) is reported as “most toxic” and the “relative toxicity to cabbage leaves” value [1] is reported as “most toxic”.
For CCC(=O)OCCc1ccccc1 [Phenethyl Propionate (PEP), Phenethyl Propionate], the “EC50 (amount producing 50% of maximum effect)” value [1] was 158.8 micrograms.
Cc1ccc(C(C)C)c(O)c1 [Thymol] was tested, and the “EC50 (amount producing 50% of maximum effect)” value [1] was 10.7 micrograms.
With CC(C)=CCCC(C)CC=O (stereo not drawn) [citronellal, Citronellal] the “relative toxicity to dandelion” value (dandelion) was “most toxic” and the “relative toxicity to cabbage leaves” value [1] was “most toxic”.

— patent US6506707B1, “Herbicidal compositions containing plant essential oils and mixtures or blends thereof” (Ecosmart Technologies, Inc., priority 1999, dated 2003)
